According to PubChem BioAssay AID330 (DTP/NCI, 2004):
Several values for one entry are separate records, joined by “and”; a condition that tells them apart may be missing. Equal entries are not always repeated. Toxic doses and inconclusive results are not listed. Rule for the calls: active = survival T/C of 150% or more; inactive = T/C below 125% in these data.

System: P388 leukemia ip, CD2F1 mice, survival T/C
Assay: NCI In Vivo Anticancer Drug Screen. Data for tumor model P388 Leukemia (intraperitoneal) in CD2F1 (CDF1) mice
Details: endpoint: median survival time, higher = longer survival
Procedure, shortened: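 Mice carrying the transplanted tumor received test compound or vehicle. Survival was recorded in each group, and the value is the treated-group measurement divided by that of the vehicle-treated control group.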

[1] = dose: 6.25 mg/kg/injection, schedule: Q01DX005 (ip), vehicle: Klucel (hydroxypropylcellulose) (HPC)
[2] = dose: 12.5 mg/kg/injection, schedule: Q01DX005 (ip), vehicle: Klucel (hydroxypropylcellulose) (HPC)
[3] = dose: 25.0 mg/kg/injection, schedule: Q01DX005 (ip), vehicle: Klucel (hydroxypropylcellulose) (HPC)
[4] = dose: 50.0 mg/kg/injection, schedule: Q01DX005 (ip), vehicle: Klucel (hydroxypropylcellulose) (HPC)
[5] = dose: 100.0 mg/kg/injection, schedule: Q01DX005 (ip), vehicle: Klucel (hydroxypropylcellulose) (HPC)
[6] = dose: 200.0 mg/kg/injection, schedule: Q01DX005 (ip), vehicle: Klucel (hydroxypropylcellulose) (HPC)
[7] = dose: 25.0 mg/kg/injection, schedule: Q01DX009 (ip), vehicle: Klucel (hydroxypropylcellulose) (HPC)
[8] = dose: 50.0 mg/kg/injection, schedule: Q01DX009 (ip), vehicle: Klucel (hydroxypropylcellulose) (HPC)
[9] = dose: 100.0 mg/kg/injection, schedule: Q01DX009 (ip), vehicle: Klucel (hydroxypropylcellulose) (HPC)
[10] = dose: 200.0 mg/kg/injection, schedule: Q01DX009 (ip), vehicle: Klucel (hydroxypropylcellulose) (HPC)
[11] = dose: 50.0 mg/kg/injection, schedule: Q01DX009 (ip), vehicle: saline with Tween-80
[12] = dose: 100.0 mg/kg/injection, schedule: Q01DX009 (ip), vehicle: saline with Tween-80
[13] = dose: 100.0 mg/kg/injection, schedule: Q04DX002 (ip), vehicle: saline with Tween-80
[14] = dose: 100.0 mg/kg/injection, schedule: Q04DX003 (ip), vehicle: saline with Tween-80
[15] = dose: 200.0 mg/kg/injection, schedule: Q04DX003 (ip), vehicle: saline with Tween-80

Measured: T/C

O=C1C=CC(=O)C(Sc2cccc3ccccc23)=C1
inactive: [1] 96 % of control | [2] 102 % of control and 97 % of control | [3] 93 % of control | [4] 98 % of control and 107 % of control | [5] 107 % of control | [6] 104 % of control

C[CH2][Sn]([CH2]C)([O]C(=O)c1ccc2c(c1)OC(C)(C)O2)[O]C(=O)c1ccc2c(c1)OC(C)(C)O2
inactive: [1] 117 % of control | [2] 116 % of control | [3] 120 % of control | [4] 124 % of control

CC(=O)Nc1c(C)cccc1C
inactive: [7] 93 % of control | [8] 100 % of control | [9] 97 % of control | [10] 103 % of control

COc1cc(C2c3cc4c(cc3OC(=O)C2C(C)=O)OCO4)cc(OC)c1OC (centres undefined)
inactive: dose: 30.0 mg/kg/injection, schedule: Q01DX005 (ip), vehicle: saline with Tween-80 89 % of control and 90 % of control | dose: 60.0 mg/kg/injection, schedule: Q01DX005 (ip), vehicle: saline with Tween-80 89 % of control (2×) and 93 % of control | dose: 120.0 mg/kg/injection, schedule: Q01DX005 (ip), vehicle: saline with Tween-80 107 % of control and 110 % of control

CCOC(=O)/N=[N+](\[O-])c1ccc(Cl)cc1
inactive: dose: 100.0 mg/kg/injection, schedule: Q01DX001 (ip), vehicle: Klucel (hydroxypropylcellulose) (HPC) 100 % of control

N/C(=N\O)N(c1ccccc1)c1ccccc1
inactive: dose: 25.0 mg/kg/injection, schedule: Q01DX009 (ip), vehicle: saline with Tween-80 97 % of control | [11] 98 % of control | [12] 99 % of control

O=c1[nH]c2cc([N+](=O)[O-])ccc2nc1/C=C(\O)c1ccc([N+](=O)[O-])cc1
inactive: dose: 60.0 mg/kg/injection, schedule: Q01DX005 (ip), vehicle: Klucel + Tween-80 87 % of control | dose: 120.0 mg/kg/injection, schedule: Q01DX005 (ip), vehicle: Klucel + Tween-80 86 % of control | dose: 240.0 mg/kg/injection, schedule: Q01DX005 (ip), vehicle: Klucel + Tween-80 90 % of control

COc1ccc(CCN=C(C)c2cc(Cl)cc(Cl)c2O)cc1OC
inactive: [4] 104 % of control | [5] 102 % of control | [6] 95 % of control

COc1ccc2cc3ccncc3cc2c1OC
inactive: dose: 12.5 mg/kg/injection, schedule: Q01DX009 (ip), vehicle: water 96 % of control | dose: 25.0 mg/kg/injection, schedule: Q01DX009 (ip), vehicle: water 99 % of control | dose: 50.0 mg/kg/injection, schedule: Q01DX009 (ip), vehicle: water 99 % of control | dose: 100.0 mg/kg/injection, schedule: Q01DX009 (ip), vehicle: water 97 % of control | dose: 200.0 mg/kg/injection, schedule: Q01DX009 (ip), vehicle: water 105 % of control

S=C1CC(c2ccc(Sc3ccccc3)cc2)=Nc2ccccc2N1
inactive: [7] 90 % of control | [8] 90 % of control | [9] 99 % of control and 87 % of control | [10] 100 % of control

[CH3][Sn]([CH3])([Cl])[O][Sn]([CH3])([CH3])[Cl]
inactive: dose: 1.56 mg/kg/injection, schedule: Q01DX009 (ip), vehicle: saline 115 % of control | dose: 3.12 mg/kg/injection, schedule: Q01DX009 (ip), vehicle: saline 109 % of control and 118 % of control | dose: 6.25 mg/kg/injection, schedule: Q01DX009 (ip), vehicle: saline 118 % of control and 123 % of control | dose: 12.5 mg/kg/injection, schedule: Q04DX003 (ip), vehicle: saline 116 % of control | dose: 25.0 mg/kg/injection, schedule: Q04DX003 (ip), vehicle: saline 124 % of control | dose: 50.0 mg/kg/injection, schedule: Q04DX003 (ip), vehicle: saline 109 % of control

CN(C(=O)NCCCl)C1=NC(O)(c2ccccc2)C(c2ccccc2)=N1 (centres undefined)
inactive: [13] 106 % of control | dose: 200.0 mg/kg/injection, schedule: Q04DX002 (ip), vehicle: saline with Tween-80 113 % of control | dose: 400.0 mg/kg/injection, schedule: Q04DX002 (ip), vehicle: saline with Tween-80 112 % of control

CNC(=S)N/N=C(\C)c1ccco1
inactive: dose: 100.0 mg/kg/injection, schedule: Q01DX001 (ip), vehicle: saline 104 % of control | dose: 200.0 mg/kg/injection, schedule: Q01DX001 (ip), vehicle: saline 97 % of control | dose: 400.0 mg/kg/injection, schedule: Q01DX001 (ip), vehicle: saline 97 % of control

CCCCCCCCCCCCn1ccnc1
inactive: [14] 102 % of control | [15] 97 % of control

CCC1=CC(C(O)CC(C)C)C(C)(Cc2ccc(CC)cn2)NC1c1ccccc1 (centres undefined)
inactive: [13] 96 % of control

O=S(=O)(Oc1ccc2ccccc2c1)C(F)(F)C(F)(F)C(F)(F)C(F)(F)F
inactive: [11] 100 % of control | [12] 108 % of control | dose: 200.0 mg/kg/injection, schedule: Q01DX009 (ip), vehicle: saline with Tween-80 108 % of control

CC(CN)OS(=O)(=O)O (centres undefined)
inactive: [14] 100 % of control | [15] 100 % of control | dose: 400.0 mg/kg/injection, schedule: Q04DX003 (ip), vehicle: saline with Tween-80 95 % of control

Cc1nc2nc(N)nc(N)c2nc1Sc1ccc(Cl)cc1
inactive: dose: 25.0 mg/kg/injection, schedule: Q04DX003 (ip), vehicle: saline with Tween-80 94 % of control | dose: 50.0 mg/kg/injection, schedule: Q04DX003 (ip), vehicle: saline with Tween-80 90 % of control

CON=C1C(C)(C)C(=NOC)C1(C)C
inactive: [2] 90 % of control | [3] 86 % of control | [4] 99 % of control

CC1=C(N2CCOCC2)C(N2CCOCC2)C(C)C1=O (centres undefined)
inactive: [4] 100 % of control | [5] 101 % of control | [6] 100 % of control

CN(CC(=O)NC(Cc1c[nH]c2ccccc12)C(=O)O)C(=O)OCc1ccccc1 (centres undefined)
inactive: dose: 50.0 mg/kg/injection, schedule: Q01DX005 (ip), vehicle: saline with Tween-80 96 % of control | dose: 100.0 mg/kg/injection, schedule: Q01DX005 (ip), vehicle: saline with Tween-80 102 % of control | dose: 200.0 mg/kg/injection, schedule: Q01DX005 (ip), vehicle: saline with Tween-80 98 % of control

CC1C(c2ccccc2)OCCN1C(=S)NC(=O)c1ccccc1 (centres undefined)
inactive: [7] 102 % of control | [8] 101 % of control | [9] 100 % of control | [10] 111 % of control

C1CCC([Se][Se]C2CCCCC2)CC1
inactive: [8] 103 % of control | [9] 94 % of control

OC(CCl)c1ccc2ccc3c(c2c1)Nc1ccccc1S3 (centres undefined)
inactive: dose: 100.0 mg/kg/injection, schedule: Q04DX003 (ip), vehicle: Klucel (hydroxypropylcellulose) (HPC) 107 % of control | dose: 200.0 mg/kg/injection, schedule: Q04DX003 (ip), vehicle: Klucel (hydroxypropylcellulose) (HPC) 104 % of control | dose: 400.0 mg/kg/injection, schedule: Q04DX003 (ip), vehicle: Klucel (hydroxypropylcellulose) (HPC) 102 % of control

CCOC(=O)C(C(=O)OCC)C(C)(C)C
inactive: dose: 50.0 mg/kg/injection, schedule: Q01DX009 (ip), vehicle: saline 100 % of control | dose: 100.0 mg/kg/injection, schedule: Q01DX009 (ip), vehicle: saline 102 % of control | dose: 200.0 mg/kg/injection, schedule: Q01DX009 (ip), vehicle: saline 109 % of control | dose: 400.0 mg/kg/injection, schedule: Q01DX009 (ip), vehicle: saline 109 % of control

CCOc1cc2c(cc1C(C)c1ccc(O)cc1)OCO2 (centres undefined)
inactive: dose: 50.0 mg/kg/injection, schedule: Q01DX005 (ip), vehicle: distilled water + Tween-80 102 % of control | dose: 100.0 mg/kg/injection, schedule: Q01DX005 (ip), vehicle: distilled water + Tween-80 105 % of control | dose: 200.0 mg/kg/injection, schedule: Q01DX005 (ip), vehicle: distilled water + Tween-80 109 % of control

CC12CC3(C)CC(C)(C1)CC(Br)(C2)C3
inactive: [8] 100 % of control | [9] 99 % of control | [10] 97 % of control

COc1ccc(/C=N\N=C(/[O-])c2ccc(Cl)cc2)cc1.COc1ccc(/C=N\N=C(/[O-])c2ccc(Cl)cc2)cc1.[Ni+2].[OH3+].[OH3+]
inactive: [13] 92 % of control

Cc1nn(-c2ccccc2)c2c1C(c1ccccc1)C(C#N)=C(N)O2 (centres undefined)
inactive: [8] 100 % of control | [9] 100 % of control | [10] 100 % of control

CCN(CC)c1cccc(Nc2nc3ccccc3s2)c1
inactive: dose: 60.0 mg/kg/injection, schedule: Q01DX005 (ip), vehicle: Klucel (hydroxypropylcellulose) (HPC) 97 % of control | dose: 120.0 mg/kg/injection, schedule: Q01DX005 (ip), vehicle: Klucel (hydroxypropylcellulose) (HPC) 88 % of control | dose: 240.0 mg/kg/injection, schedule: Q01DX005 (ip), vehicle: Klucel (hydroxypropylcellulose) (HPC) 93 % of control
